Consider 37 molecules from patent US20160256560A1, “Environmentally Sensitive Compositions” (priority 2010, published 2016).

Data set [1] can be described thus: Stopped-flow fluorescence and CD kinetics of insertion/folding and exit/unfolding. The format is physicochemical.
The nature of data set [2]: physchem.
The conditions of data set [3]: pH 5.5.
Data set [4] concerns HeLa cells. The format is cell-based, human. The following applies: for antiproliferative effect at either pH: pH 6.
The subject of data set [5] is HeLa-GFP cells. Kind of data set: Cellular uptake of nanogold (silver enhancement, image analysis). The format is cell-based, human. Particulars: 1 h.
The subject of data set [6] is HeLa tumors. Particulars: mouse, in vivo.
Test in data set [7]: not given
The source holds these as a separate data set.

In data set [8] the target is actin filaments. The following applies: read-out: Kd, binding to actin filaments; cited from earlier work.
In data set [9] the test system is HeLa cells.
For data set [10], the system named is M4A4 cells.
The test system of data set [11] is tumors. On the set-up: species or system nude mice. Particulars: mouse, in vivo.

Values joined by “and” are separate entries in the source; they are usually repeats but may differ in a detail not shown here. Identical values can stand only once. Like-named read-outs stand apart in the source and are kept apart here. *1 amine or outer side, *2 acyl side, *3 side chain or, on linkers, in order; H or OH if unused. Where a SMILES comes first, the peptide text is derived from it. Bridges are numbered along the chain shown (N, C = ends). Where no end group is shown, it is not given here. [ ]: non-standard residue; d: D form. ξ: configuration not given here. X3 = CN(C)c1ccc2c(c1)Oc1cc(N(C)C)ccc1C2=C1C=CC(=NC(=S)NC[C@](C)(O)C[C@H](N[*:1])C(=O)[*:2])C=C1C(=O)O; X2 = CCCCCCCC/C=C\CCCCCCCC(=O)OC[C@](C)(O)C[C@H](N[*:1])C(=O)[*:2]; Trp(2-yl) = O=C([C@H](Cc1c([*:3])[nH]c2ccccc12)N[*:1])[*:2]; ξTrp(2-yl) = O=C(C(Cc1c([*:3])[nH]c2ccccc12)N[*:1])[*:2]; X1 = CC(O)(CO)CC(N[*:1])C(=O)[*:2]; cisHyp = O=C(O)[C@@H]1C[C@H](O)CN1; ξAsp(3ξ-OH) = NC(C(=O)O)C(O)C(=O)O; Hyp = O=C(O)[CH]1C[CH](O)CN1

For “GGEQNPIYWARYADWLFTTPLLLLDLALLVDADEGTCG [WT-Cys3]”, the “pH 8 Solubility” value was “Y”.
As to “AEQNPI YFARYADELFTTPLLLLDLALLW DADET-COOH [pHLIP-W3]”, in data set [1] (pH 3.6), the “characteristic time, first component, exit” value is on record as 0.06 s (14.9 s^−1); the “characteristic time, second component, exit” value is on record as 0.35 s (2.88 s^−1); the “rate constant, first component, exit” value is listed as 0.06 s (14.9 s^−1); the “rate constant, second component, exit” value is 0.35 s (2.88 s^−1).
For the molecule “DDDEDNPIYWARYADWLFTTPLLLLHGALLVDADECT [2H3 or D3a]”, the “pH 8 Solubility” value is given as “Y”.
With “DDDEDNPIYWARYAHWLFTTPLLLLHGALLVNANECT [D0]”, the “pH 8 Solubility” value is “Y”.
As to “DDDEDNPIYWARYAHWLFTTPLLLLHGALLVNANECT [D0 or H2N2]”, the “pH 8 Solubility” value is reported as “Y”.
Turning to “AEDQNPYWARYADWLFTTPLLLLDLALLVDCG [Fast1-Cys]”, the pKa in data set [2] was found to be 6.1.
With `CC[C@H](C)[C@H](NC(=O)[C@@H]1CCCN1C(=O)[C@H](CC(N)=O)NC(=O)[C@H](CCC(N)=O)NC(=O)[C@H](CCC(=O)O)NC(=O)[C@H](C)NC(=O)[C@H](C)N)C(=O)N[C@@H](Cc1ccc(O)cc1)C(=O)N[C@@H](Cc1c[nH]c2ccccc12)C(=O)N[C@@H](C)C(=O)N[C@@H](CCCNC(=N)N)C(=O)N[C@@H](Cc1ccc(O)cc1)C(=O)N[C@@H](C)C(=O)N[C@@H](CC(=O)O)C(=O)N[C@@H](Cc1c[nH]c2ccccc12)C(=O)N[C@@H](CC(C)C)C(=O)N[C@@H](Cc1ccccc1)C(=O)N[C@H](C(=O)N[C@H](C(=O)N1CCC[C@H]1C(=O)N[C@@H](CC(C)C)C(=O)N[C@@H](CC(C)C)C(=O)N[C@@H](CC(C)C)C(=O)N[C@@H](CC(C)C)C(=O)N[C@@H](C)C(=O)N[C@@H](CC(C)C)C(=O)N[C@@H](C)C(=O)N[C@@H](CC(C)C)C(=O)N[C@@H](CC(C)C)C(=O)N[C@H](C(=O)N[C@@H](CC(=O)O)C(=O)N[C@@H](C)C(=O)N[C@@H](CC(=O)O)C(=O)N[C@@H](CCC(=O)O)C(=O)NCC(=O)N[C@H](C(=O)N[C@@H](CS)C(=O)NCC(=O)O)[C@@H](C)O)C(C)C)[C@@H](C)O)[C@@H](C)O` [D25A], the “pH 8 Solubility” value is recorded as “N”.
In the case of “Phallacidin-(CH2)n—SH, n=10 [phallC10SH]”, the “Log P (octanol-water partition coefficient)” value in [3] is given as “+1.28”.
For the molecule “DDDEDNPIYWARYAHWLFTTPLLLLHGALLVNADECT [D1]”, the “pH 8 Solubility” value was “Y”.
In data set [2], “GGEQNPIYWARYADWLFTTPLLLLDLALLVDADEGT [WT-1]” yielded a pKa of 6.
In the case of Phallacidin-(CH2)n—SH, n=6 [phallC6SH], in data set [4], the “antiproliferative effect at either pH” value is on record as “does not demonstrate an antiproliferative effect at either pH”.
`CC[C@H](C)[C@H](NC(=O)[C@@H]1CCCN1C(=O)[C@H](CC(N)=O)NC(=O)[C@H](CCC(N)=O)NC(=O)[C@H](CCC(=O)O)NC(=O)[C@H](C)NC(=O)[C@H](C)N)C(=O)N[C@@H](Cc1ccc(O)cc1)C(=O)N[C@@H](Cc1c[nH]c2ccccc12)C(=O)N[C@@H](C)C(=O)N[C@@H](CCCNC(=N)N)C(=O)N[C@@H](Cc1ccc(O)cc1)C(=O)N[C@@H](C)C(=O)N[C@@H](CCC(=O)O)C(=O)N[C@@H](Cc1c[nH]c2ccccc12)C(=O)N[C@@H](CC(C)C)C(=O)N[C@@H](Cc1ccccc1)C(=O)N[C@H](C(=O)N[C@H](C(=O)N1CCC[C@H]1C(=O)N[C@@H](CC(C)C)C(=O)N[C@@H](CC(C)C)C(=O)N[C@@H](CC(C)C)C(=O)N[C@@H](CC(C)C)C(=O)N[C@@H](CC(=O)O)C(=O)N[C@@H](CC(C)C)C(=O)N[C@@H](C)C(=O)N[C@@H](CC(C)C)C(=O)N[C@@H](CC(C)C)C(=O)N[C@H](C(=O)N[C@@H](CC(=O)O)C(=O)N[C@@H](C)C(=O)N[C@@H](CC(=O)O)C(=O)N[C@@H](CCC(=O)O)C(=O)NCC(=O)N[C@H](C(=O)N[C@@H](CS)C(=O)NCC(=O)O)[C@@H](C)O)C(C)C)[C@@H](C)O)[C@@H](C)O` [D14E]: the “pH 8 Solubility” value is listed as “Y”.
In data set [2], “AAEQNPIYWARYADWLFTTPLLLLDLALLVDADEGTCG [WT-Cys1]” registered a pKa of 6.14.
Regarding `CCCCCCCC/C=C\CCCCCCCC(=O)OC[C@](C)(O)C[C@@H]1NC(=O)[C@@H]2Cc3c([nH]c4ccccc34)SC[C@H](NC(=O)[C@@H]([C@H](C)O)NC(=O)[C@H](C)NC1=O)C(=O)N1C[C@@H](O)C[C@H]1C(=O)N[C@@H](C)C(=O)N2` [phalloidin-oleate] (cyclo(A[dT]C[cisHyp]A[Trp(2-yl)][X2]); thioether 3-6), the “inhibition of Hela cell proliferation rate” value in data set [4] (1 µM) is 60%; in data set [4] (2 µM) it was 70%; in data set [4] (4 µM), 95%. The “Log P” value in data set [3] is reported as “+1.7”.
On to `CC1NC(=O)C2CC(O)CN2C(=O)C2CSc3[nH]c4ccccc4c3CC(NC1=O)C(=O)NC(CC(C)(O)CO)C(=O)NC(C(C)C)C(=O)NC(C(O)C(=O)O)C(=O)N2` (centres unmarked) [phallacidin, reference compound] (cyclo([ξAsp(3ξ-OH)]C[Hyp]A[ξTrp(2-yl)][X1]V); thioether 2-5; configuration not given here), for which, in data set [4], the “antiproliferative effect at either pH” value is given as “does not demonstrate an antiproliferative effect at either pH”. Also, in data set [3], the “Log P (octanol-water partition coefficient)” value was −1.6.
“ACEQNPIYWARYANWLFTTPLLLLNLALLVDADEGTG [N-pHLIP]”: the “pH 8 Solubility” value was “Y”.
Still for that read-out and setting: next, “ACEQNPIYWARYAKWLFTTPLLLLKLALLVDADEGTG [K-pHLIP]”: “Y/N”.
Same read-out and setting: next, “DDDEDNPIYWARYAHWLFTTPLLLLHGALLVDADECT [2H2 or D2]”: “Y”.
For “gold-pHLIP: 1.4 nm monomaleimido Nanogold conjugated to N-terminal Cys of pHLIP (ACEQNPIYWARYADWLFTTPLLLLDLALLVDADET) (AC(1.4 nm monomaleimido Nanogold)EQNPIYWARYADWLFTTPLLLLDLALLVDADET)”, the “cellular uptake at pH6.5 versus pH7.4 (times higher)” value in data set [5] (2 μM) stood at 1.6. Further, the “uptake of gold versus unmodified gold nanoparticles (times)” value in data set [5] (pH6.5, 2 μM) is 6.4; in data set [5] (pH7.4, 2 μM), 3. Besides, the tumor/muscle ratio in data set [6] came to 5.6. The “gold in tumor versus gold nanoparticles alone (times)” value in data set [6] (iv) came out at 6.
Turning to Phallacidin-(CH2)n—SH, n=4 [phallC4SH], the “Log P (octanol-water partition coefficient)” value in data set [3] is on record as −0.74.
Turning to “Ac-AAEQNPIYWARYADWLFTTPLLLLDLALLVDADEGTKCG [pHLIP-KC]”, the “pH 8 Solubility” value is given as “Y”. In addition, the pKa in data set [2] was determined as 6.16.
“GGEQNPIYWAQYDAWLFTTPLLLLDLALLVDADEGTCG [R11Q; D14Up]”: the “pH 8 Solubility” value is “Y”.
As to “AEDQNDPI YWARYADWLFTTPLLLLELALLV EC--G-T-COOH [pHLIP-2E]”, in data set [1] (pH 8), the “A, frequency factor, first transition” value is on record as 1.2 × 10^5; the “Ea, first transition” value came to 6.0 kcal/mol; the “k1, rate constant” value is 0.20/5.00 s^−1 and 0.28/3.57 s^−1 and 0.34/2.94 s^−1 and 0.39/2.56 s^−1; the “t1, characteristic time” value is 0.20/5.00 s and 0.28/3.57 s and 0.34/2.94 s and 0.39/2.56 s. Moreover, the “λmax, maximum position of fluorescence spectrum” value in [7] came to 339.2 nm. Further, the “λmax, maximum position of fluorescence spectrum” value in data set [7] (pH 8) is 351.2 nm and 341.3 nm.
As for AEQNPIYWARYADWLFTTPL [Short-Cys], the pKa in data set [2] was determined as 4.4.
In the case of phallacidin-(CH2)10NH2 [phallC10], in [3], the “Log P (octanol-water partition coefficient)” value is “+1.28”.
As to “GGEQNPIYWARYADWLFTTPLLLLDLALLVNANQGT [NNQ]”, the “pH 8 Solubility” value was “Y”.
Turning to `C[C@@H]1NC(=O)[C@H](C[C@@](C)(O)CNC(=S)N=C2C=CC(=C3c4ccc(N(C)C)cc4Oc4cc(N(C)C)ccc43)C(C(=O)O)=C2)NC(=O)[C@@H]2Cc3c([nH]c4ccccc34)SC[C@H](NC(=O)[C@@H]([C@H](C)O)NC1=O)C(=O)N1C[C@@H](O)C[C@H]1C(=O)N[C@@H](C)C(=O)N2` [phalloidin-TRITC] (cyclo(A[dT]C[cisHyp]A[Trp(2-yl)][X3]); thioether 3-6), the Kd in data set [8] was 0.04 µM.
With “pHLIP-S—S—(CH2)6-phallacidin [pHLIP-C6phall]”, the cell death entry in data set [4] is recorded as “about 60%”. For the same molecule, the “antiproliferative effect at neutral pH” value in [4] (pH 7.4) is recorded as “no effect is observed”.
Regarding aminophalloidin [reference compound], the “inhibitory effect on HeLa proliferation” value in [9] is on record as “no inhibitory effect”. For the same molecule, the “inhibitory effect on M4A4 proliferation” value in data set [10] was “no inhibitory effect”.
Consider “GGEQNPIYWARYADWLFTTPLLLDLLALLVDADEGTCG [D25Up]”, for which the “pH 8 Solubility” value is recorded as “N”.
On the same count and under the same terms, in the case of “GGEQNPIYWARYADWLFTTPLLLLLDALLVDADEGTCG [D25Down]” it was “N”; in that of “DDDEDNPIYWARYAHWLFTTPLLLLDGALLVDADECT [D3b]”, “Y”; in that of “AAEQNPIYWARYAEWLFTTPLLLLELALLVDADEGTCG [D14/25E]”, “N”.
Still for that read-out and setting: next, “GGEQNPIYWARYDAWLFTTPLLLLDLALLVDADEGTCG [D14Up]”: “Y”.
Take “AAEQNPIYWARYADWLFTTALLLLDLALLVDADEGT [P20A]”: the “Findings: solubility / aggregation” value in [7] (pH 8) is “Aggregates”.
As for “Gadolinium-tetraazacyclododecanetetraacetic acid [Gd-DOTA control]”, in data set [11], the “% T1 Change (3 hrs)” value was 5.27% and −3.05%; the “% T1 Change (24 hrs)” value was 10.7% and 5.02%; the “T1 3 hrs” value was 920.4 ms and 879.2 ms; the “T1 24 hrs” value was 967.6 ms and 952.4 ms.
Regarding “GGEQNPIYWAQDYAWLFTTPLLLLDLALLVDADEGTCG [R11Q; D14UpUp]”, the “pH 8 Solubility” value is listed as “Y”.
